The values below come from US20080009418A1, “Selective Inhibitors” (Alchemia LTD., priority 2004, published 2008).

Assay [1] addresses T1, Human δ-opioid (DOP) (Homo sapiens, UniProt P41143).
T1 construct: purchased Perkin Elmer Biosignal
In words: Radioligand binding, human δ-opioid (DOP) membranes, FlashPlate, [3H]-Bremazocine. To be noted: compound at 10 μM, [3H]-Bremazocine. The method, boiled down:
(§1)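 Cloned human receptor membranes were coated onto FlashPlate wells and incubated with radioligand and compound (added from a 0.5 mM DMSO daughter plate) for 1 hour at room temperature in the dark. Scintillation counting gave percent inhibition, with DMSO defining total and reference ligand defining non-specific binding.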

The target of assay [2] is T2, Human κ-Opioid (KOP) (Homo sapiens, UniProt P41145).
T2 construct: purchased Perkin Elmer Biosignal
The assay is described as follows: Radioligand binding, human κ-opioid (KOP) membranes, filtration, [3H]-Diprenorphine. To be noted: compound at 10 μM, [3H]-Diprenorphine. The gist of the method:
(§2)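 Filtration binding on cloned human receptor membranes (1 Unit/well), [125I]-Substance P for NK1 and [3H]-Diprenorphine for KOP, 1 h at room temperature. Filters PEI-presoaked, washed with cold 50 mM Tris-HCl pH 7.4, counted by scintillation; percent inhibition calculated, reference ligand defining non-specific binding.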

Assay [3] has as its target T3, Human Melanocortin (MC3) (Homo sapiens, UniProt P41968).
T3 construct: purchased Perkin Elmer Biosignal
The assay is described as follows: Radioligand binding, human melanocortin MC3 membranes, FlashPlate, [125I]-NDP-αMSH. To be noted: compound at 10 μM, [125I]-NDP-αMSH. The method, boiled down:
as §1

The target of assay [4] is T4, Human Melanocortin (MC4) (Homo sapiens, UniProt P32245).
T4 construct: purchased Perkin Elmer Biosignal
The assay is described as follows: Radioligand binding, human melanocortin MC4 membranes, FlashPlate, [125I]-NDP-αMSH. To be noted: compound at 10 μM, [125I]-NDP-αMSH; for A4: inhibition of radioligand binding, human melanocortin (MC4): 10 µM. The gist of the method:
as §1

The target in assay [5] is T5, Human melanocortin (MC5) (Homo sapiens, UniProt P33032).
T5 construct: purchased Perkin Elmer Biosignal
The assay is described as follows: Radioligand binding, human melanocortin MC5 membranes, FlashPlate, [125I]-NDP-αMSH. To be noted: compound at 10 μM, [125I]-NDP-αMSH. The gist of the method:
as §1

For assay [6], the target named is T6, Human melanin-concentrating hormone (MCH1) (Homo sapiens, UniProt Q99705).
T6 construct: purchased Perkin Elmer Biosignal
The assay is described as follows: Radioligand binding, human melanin-concentrating hormone MCH1 membranes, FlashPlate, [125I]-S36057. To be noted: compound at 10 μM; for A6: inhibition of radioligand binding, human melanin-concentrating hormone (MCH1): [125I]-S36057, 10 µM. The gist of the method:
as §1

The target of assay [7] is T7, Human μ-opioid (MOP) (Homo sapiens, UniProt P35372).
T7 construct: purchased Perkin Elmer Biosignal
The assay is described as follows: Radioligand binding, human μ-opioid (MOP) membranes, FlashPlate, [3H]-Naloxone. To be noted: compound at 10 μM, [3H]-Naloxone. The gist of the method: as §1

Assay [8] addresses T8, Human neurokinin (NK1) (Homo sapiens, UniProt P25103).
T8 construct: purchased Perkin Elmer Biosignal
The assay is described as follows: Radioligand binding, human neurokinin NK1 membranes, filtration, [125I]-Substance P. To be noted: compound at 10 μM, [125I]-Substance P. The gist of the method:
as §2

Assay [9] concerns the target T9, Human neuropeptide Y (NPY-Y1) (Homo sapiens, UniProt P25929).
T9 construct: purchased Perkin Elmer Biosignal
T9 sequence (P25929 1-384): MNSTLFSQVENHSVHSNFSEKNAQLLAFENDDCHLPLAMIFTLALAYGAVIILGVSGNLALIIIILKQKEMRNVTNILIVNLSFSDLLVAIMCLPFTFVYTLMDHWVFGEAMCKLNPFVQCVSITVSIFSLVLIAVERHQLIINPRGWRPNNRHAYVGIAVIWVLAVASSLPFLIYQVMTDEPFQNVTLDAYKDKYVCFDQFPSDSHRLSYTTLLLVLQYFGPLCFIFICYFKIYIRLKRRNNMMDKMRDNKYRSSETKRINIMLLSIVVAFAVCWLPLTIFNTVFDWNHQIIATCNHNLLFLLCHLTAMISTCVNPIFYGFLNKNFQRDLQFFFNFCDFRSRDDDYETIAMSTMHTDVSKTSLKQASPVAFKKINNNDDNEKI
In words: Radioligand binding, human neuropeptide Y NPY-Y1 membranes, FlashPlate, [125I]-PYY. To be noted: compound at 10 μM, [125I]-PYY. The method, boiled down: as §1

Assay [10] deals with T10, Human opioid (ORL1) (Homo sapiens, UniProt P41146).
T10 construct: purchased Perkin Elmer Biosignal
The assay is described as follows: Radioligand binding, human opioid ORL1 membranes, FlashPlate, [125I]-Nociceptin. To be noted: compound at 10 μM, [125I]-Nociceptin. The method, boiled down:
as §1

Assay [11] concerns the target T11, Mouse urotensin (mUR2) (Mus musculus, UniProt Q8VIH9).
T11 construct: purchased Perkin Elmer Biosignal
T11 sequence (Q8VIH9 1-385): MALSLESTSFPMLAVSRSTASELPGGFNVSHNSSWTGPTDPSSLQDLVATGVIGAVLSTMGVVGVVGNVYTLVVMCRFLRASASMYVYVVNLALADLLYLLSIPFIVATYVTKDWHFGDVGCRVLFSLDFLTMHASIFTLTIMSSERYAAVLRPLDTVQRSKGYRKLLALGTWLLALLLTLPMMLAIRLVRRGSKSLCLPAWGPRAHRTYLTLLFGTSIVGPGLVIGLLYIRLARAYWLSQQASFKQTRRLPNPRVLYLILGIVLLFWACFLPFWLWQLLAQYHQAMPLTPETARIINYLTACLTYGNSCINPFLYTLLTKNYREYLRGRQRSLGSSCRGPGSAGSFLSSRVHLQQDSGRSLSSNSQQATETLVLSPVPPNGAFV
The assay is described as follows: Radioligand binding, mouse urotensin mUR2 membranes, FlashPlate, [125I]-Urotensin II. To be noted: compound at 10 μM, [125I]-Urotensin II. The gist of the method:
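Cloned mouse urotensin (mUR2) receptor membranes from Perkin Elmer Biosignal were immobilized in FlashPlate microplates using a proprietary coating. Each well got 19.5 μl buffer, then 0.5 μl of DMSO, reference ligand, or compound. Adding 5 μl of [125I]-Urotensin II, diluted to 5× final concentration in binding buffer, started binding. Plates were sealed with TopSeal-A and incubated 1 hour at room temperature in the dark. Wells were counted for 30 seconds each on a TopCount after a 60-second delay, and percentage inhibition was calculated.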

T4 sequence (P32245 whole entry): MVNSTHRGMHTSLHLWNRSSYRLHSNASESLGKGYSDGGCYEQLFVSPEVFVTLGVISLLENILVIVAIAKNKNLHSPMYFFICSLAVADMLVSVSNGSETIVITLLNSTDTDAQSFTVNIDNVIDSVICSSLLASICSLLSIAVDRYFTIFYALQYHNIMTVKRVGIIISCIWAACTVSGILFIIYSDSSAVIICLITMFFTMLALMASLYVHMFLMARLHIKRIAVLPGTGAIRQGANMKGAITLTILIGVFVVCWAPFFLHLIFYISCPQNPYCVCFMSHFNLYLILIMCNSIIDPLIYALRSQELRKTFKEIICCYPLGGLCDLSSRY
T8 sequence (P25103 whole entry): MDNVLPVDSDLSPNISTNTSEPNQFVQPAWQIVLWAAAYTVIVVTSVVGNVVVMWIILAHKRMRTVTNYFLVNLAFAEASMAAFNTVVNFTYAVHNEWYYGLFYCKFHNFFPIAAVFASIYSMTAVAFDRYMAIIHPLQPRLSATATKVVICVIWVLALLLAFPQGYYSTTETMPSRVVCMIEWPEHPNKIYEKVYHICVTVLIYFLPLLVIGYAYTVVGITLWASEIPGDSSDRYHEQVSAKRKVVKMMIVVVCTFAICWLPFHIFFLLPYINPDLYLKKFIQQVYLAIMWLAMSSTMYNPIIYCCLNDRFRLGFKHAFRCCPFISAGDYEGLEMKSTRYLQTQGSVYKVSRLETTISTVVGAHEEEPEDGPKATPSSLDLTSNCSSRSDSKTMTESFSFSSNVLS
T7 sequence (P35372 whole entry): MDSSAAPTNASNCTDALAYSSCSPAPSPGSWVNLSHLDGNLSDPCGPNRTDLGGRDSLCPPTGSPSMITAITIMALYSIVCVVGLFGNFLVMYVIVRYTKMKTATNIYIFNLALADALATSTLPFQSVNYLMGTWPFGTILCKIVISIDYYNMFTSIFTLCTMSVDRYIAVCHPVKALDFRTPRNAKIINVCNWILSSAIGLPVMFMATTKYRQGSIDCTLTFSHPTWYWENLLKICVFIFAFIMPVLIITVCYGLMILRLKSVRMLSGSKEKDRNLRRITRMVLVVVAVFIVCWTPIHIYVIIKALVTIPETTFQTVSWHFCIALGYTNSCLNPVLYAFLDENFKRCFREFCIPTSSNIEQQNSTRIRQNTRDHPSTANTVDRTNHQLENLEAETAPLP
T2 sequence (P41145 whole entry): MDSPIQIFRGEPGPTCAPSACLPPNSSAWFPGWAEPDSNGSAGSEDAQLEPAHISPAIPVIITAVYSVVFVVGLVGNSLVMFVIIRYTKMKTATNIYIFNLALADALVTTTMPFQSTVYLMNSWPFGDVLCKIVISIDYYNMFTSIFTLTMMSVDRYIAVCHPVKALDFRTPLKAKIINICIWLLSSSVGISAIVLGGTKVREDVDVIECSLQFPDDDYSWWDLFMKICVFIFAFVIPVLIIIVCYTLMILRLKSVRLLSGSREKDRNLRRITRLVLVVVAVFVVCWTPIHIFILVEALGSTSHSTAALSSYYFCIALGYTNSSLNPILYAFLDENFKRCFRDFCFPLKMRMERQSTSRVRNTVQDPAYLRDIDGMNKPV
T1 sequence (P41143 whole entry): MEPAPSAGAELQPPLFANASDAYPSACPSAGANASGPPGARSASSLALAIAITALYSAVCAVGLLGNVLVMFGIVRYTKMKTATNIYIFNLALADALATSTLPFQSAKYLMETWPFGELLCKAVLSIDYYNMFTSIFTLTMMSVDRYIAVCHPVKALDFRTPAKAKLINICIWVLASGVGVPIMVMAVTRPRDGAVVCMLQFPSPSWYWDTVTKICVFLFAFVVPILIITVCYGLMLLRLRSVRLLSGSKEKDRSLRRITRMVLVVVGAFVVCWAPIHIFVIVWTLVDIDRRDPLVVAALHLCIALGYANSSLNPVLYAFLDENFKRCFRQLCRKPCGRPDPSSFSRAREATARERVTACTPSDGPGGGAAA
T6 sequence (Q99705 whole entry): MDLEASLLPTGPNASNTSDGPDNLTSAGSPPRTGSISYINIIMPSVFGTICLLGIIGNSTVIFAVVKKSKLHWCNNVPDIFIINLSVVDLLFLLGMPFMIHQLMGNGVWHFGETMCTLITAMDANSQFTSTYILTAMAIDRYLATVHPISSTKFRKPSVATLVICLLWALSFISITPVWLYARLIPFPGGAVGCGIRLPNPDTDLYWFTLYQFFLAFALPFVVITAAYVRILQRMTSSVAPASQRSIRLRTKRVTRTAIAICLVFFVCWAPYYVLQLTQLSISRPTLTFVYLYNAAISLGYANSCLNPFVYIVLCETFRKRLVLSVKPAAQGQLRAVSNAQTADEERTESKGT
T3 sequence (P41968 whole entry): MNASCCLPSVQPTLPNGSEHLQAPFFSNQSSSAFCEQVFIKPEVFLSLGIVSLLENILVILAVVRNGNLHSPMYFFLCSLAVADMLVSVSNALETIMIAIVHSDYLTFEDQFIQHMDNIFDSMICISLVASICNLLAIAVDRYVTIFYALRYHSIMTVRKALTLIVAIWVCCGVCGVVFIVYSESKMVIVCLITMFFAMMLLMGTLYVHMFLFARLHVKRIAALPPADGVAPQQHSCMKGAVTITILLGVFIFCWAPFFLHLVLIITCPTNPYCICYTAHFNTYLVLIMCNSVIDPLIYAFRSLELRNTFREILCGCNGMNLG
T5 sequence (P33032 whole entry): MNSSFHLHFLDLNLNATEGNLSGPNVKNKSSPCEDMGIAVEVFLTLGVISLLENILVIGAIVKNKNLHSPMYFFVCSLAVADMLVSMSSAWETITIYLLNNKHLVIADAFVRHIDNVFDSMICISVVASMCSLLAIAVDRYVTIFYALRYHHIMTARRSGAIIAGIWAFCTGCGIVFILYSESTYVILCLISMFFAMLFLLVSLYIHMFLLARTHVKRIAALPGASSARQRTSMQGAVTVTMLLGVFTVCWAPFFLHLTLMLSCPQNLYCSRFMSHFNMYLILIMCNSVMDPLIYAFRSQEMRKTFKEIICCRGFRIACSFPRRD
T10 sequence (P41146 whole entry): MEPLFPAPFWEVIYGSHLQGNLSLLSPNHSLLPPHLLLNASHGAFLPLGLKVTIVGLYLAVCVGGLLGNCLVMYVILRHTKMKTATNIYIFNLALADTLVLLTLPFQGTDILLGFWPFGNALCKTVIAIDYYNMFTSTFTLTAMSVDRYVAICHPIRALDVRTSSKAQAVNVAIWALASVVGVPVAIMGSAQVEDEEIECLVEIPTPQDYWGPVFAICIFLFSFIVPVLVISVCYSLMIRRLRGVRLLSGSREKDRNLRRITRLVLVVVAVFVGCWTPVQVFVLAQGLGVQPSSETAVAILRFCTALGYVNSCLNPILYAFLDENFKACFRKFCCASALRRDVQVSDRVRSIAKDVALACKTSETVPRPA

As to `NCCC(=O)NC1C(OCc2ccc(Cl)cc2)OC(COCc2ccc3ccccc3c2)C(O)C1OCc1ccc2ccccc2c1` (single isomer, unassigned) [compound 477], the “A1: inhibition of radioligand binding, human δ-opioid (DOP)” value (“A1: inhibition … human δ-opioid (DOP)” for short) in assay [1] is “− (“−” indicates less than 50% inhibition at 10 μM)”. For the same compound, the “A2: inhibition of radioligand binding, human κ-opioid (KOP)” value (from here on “A2: inhibition … (KOP)”) in assay [2] is reported as “− (“−” indicates less than 50% inhibition at 10 μM)”. The “A3: inhibition of radioligand binding, human melanocortin (MC3)” value (“A3: inhibition … (MC3)” for short) in assay [3] (10 µM) is “− (“−” indicates less than 50% inhibition at 10 μM)”. Further, the “A4: inhibition of radioligand binding, human melanocortin (MC4)” value (“A4: inhibition … (MC4)” for short) in assay [4] is listed as “− (“−” indicates less than 50% inhibition at 10 μM)”. Also, in [5], the “A5: inhibition of radioligand binding, human melanocortin (MC5)” value (“A5: inhibition … (MC5)” for short) is reported as “+ (“+” indicates greater than 50% inhibition at 10 μM)”. In assay [6], the “A6: inhibition of radioligand binding, human melanin-concentrating hormone (MCH1)” value (“A6: inhibition of radioligand binding … (MCH1)” for short) was “− (“−” indicates less than 50% inhibition at 10 μM)”. Further, the “A7: inhibition of radioligand binding, human μ-opioid (MOP)” value (“A7: inhibition … (MOP)” for short) in [7] is given as “− (“−” indicates less than 50% inhibition at 10 μM)”. For the same compound, in [8], the “A8: inhibition of radioligand binding, human neurokinin (NK1)” value (“A8: inhibition … (NK1)” for short) is given as “+ (“+” indicates greater than 50% inhibition at 10 μM)”. In addition, the “A9: inhibition of radioligand binding, human neuropeptide Y (NPY-Y1)” value (“A9: inhibition … (NPY-Y1)” for short) in [9] was “− (“−” indicates less than 50% inhibition at 10 μM)”. The “A10: inhibition of radioligand binding, human opioid (ORL1)” value (“A10: inhibition … (ORL1)” below) in assay [10] (10 µM) was “+ (“+” indicates greater than 50% inhibition at 10 μM)”. In addition, the “A11: inhibition of radioligand binding, mouse urotensin (mUR2)” value (from here on “A11: inhibition … (mUR2)”) in assay [11] is “− (“−” indicates less than 50% inhibition at 10 μM)”.

Turning to `N=C(N)NCCC(=O)N[C@H]1C(OCc2ccc(Cl)cc2)O[C@H](COCc2ccc3ccccc3c2)[C@@H](O)[C@@H]1OCc1ccc2ccccc2c1` (some centres unmarked) [compound 529], the “A1: inhibition … human δ-opioid (DOP)” value in assay [1] is “− (“−” indicates less than 50% inhibition at 10 μM)”. Moreover, the “A2: inhibition … (KOP)” value in assay [2] (10 µM) is “+ (“+” indicates greater than 50% inhibition at 10 μM)”. For the same compound, the “A3: inhibition … (MC3)” value in assay [3] (10 µM) is listed as “+ (“+” indicates greater than 50% inhibition at 10 μM)”. Further, the “A4: inhibition … (MC4)” value in assay [4] was “+ (“+” indicates greater than 50% inhibition at 10 μM)”. In assay [5] (10 µM), the “A5: inhibition … (MC5)” value was “+ (“+” indicates greater than 50% inhibition at 10 μM)”. Besides, the “A6: inhibition of radioligand binding … (MCH1)” value in assay [6] is listed as “+ (“+” indicates greater than 50% inhibition at 10 μM)”. For the same compound, in assay [7], the “A7: inhibition … (MOP)” value is “− (“−” indicates less than 50% inhibition at 10 μM)”. Besides, the “A8: inhibition … (NK1)” value in assay [8] is on record as “+ (“+” indicates greater than 50% inhibition at 10 μM)”. Also, the “A9: inhibition … (NPY-Y1)” value in assay [9] is recorded as “− (“−” indicates less than 50% inhibition at 10 μM)”. Moreover, the “A10: inhibition … (ORL1)” value in [10] was “− (“−” indicates less than 50% inhibition at 10 μM)”. Further, the “A11: inhibition … (mUR2)” value in [11] is on record as “− (“−” indicates less than 50% inhibition at 10 μM)”.

Take `NCCC(=O)NC1C(OCc2ccc(Cl)cc2)OC(COCc2ccccc2)C(O)C1OCc1ccc2ccccc2c1` (single isomer, unassigned) [compound 480]: in assay [1], the “A1: inhibition … human δ-opioid (DOP)” value is given as “− (“−” indicates less than 50% inhibition at 10 μM)”. The “A2: inhibition … (KOP)” value in assay [2] is reported as “− (“−” indicates less than 50% inhibition at 10 μM)”. Besides, the “A3: inhibition … (MC3)” value in [3] is reported as “− (“−” indicates less than 50% inhibition at 10 μM)”. Also, in assay [4], the “A4: inhibition … (MC4)” value is reported as “+ (“+” indicates greater than 50% inhibition at 10 μM)”. For the same compound, the “A5: inhibition … (MC5)” value in [5] (10 µM) is listed as “+ (“+” indicates greater than 50% inhibition at 10 μM)”. The “A6: inhibition of radioligand binding … (MCH1)” value in assay [6] is “+ (“+” indicates greater than 50% inhibition at 10 μM)”. The “A7: inhibition … (MOP)” value in assay [7] (10 µM) is reported as “+ (“+” indicates greater than 50% inhibition at 10 μM)”. In assay [8], the “A8: inhibition … (NK1)” value was “+ (“+” indicates greater than 50% inhibition at 10 μM)”. The “A9: inhibition … (NPY-Y1)” value in [9] is “− (“−” indicates less than 50% inhibition at 10 μM)”. Moreover, in assay [10], the “A10: inhibition … (ORL1)” value is “− (“−” indicates less than 50% inhibition at 10 μM)”. Moreover, the “A11: inhibition … (mUR2)” value in assay [11] was “− (“−” indicates less than 50% inhibition at 10 μM)”.

With `COCC1OC(OCc2ccc(Cl)cc2)C(NC(=O)CCCN)C(OCc2ccc3ccccc3c2)C1O` (centres unmarked) [compound 212], the “A1: inhibition of radioligand binding” value in [1] (FlashPlate) is “− (“−” indicates less than 50% inhibition at 10 μM)”. Further, the “A2: inhibition of radioligand binding” value in assay [2] (filtration) is “− (“−” indicates less than 50% inhibition at 10 μM)”. Further, in [3] (FlashPlate), the “A3: inhibition of radioligand binding” value is reported as “− (“−” indicates less than 50% inhibition at 10 μM)”. Moreover, the “A4: inhibition of radioligand binding” value in [4] (FlashPlate) was “− (“−” indicates less than 50% inhibition at 10 μM)”. In addition, in assay [5] (FlashPlate), the “A5: inhibition of radioligand binding” value is reported as “+ (“+” indicates greater than 50% inhibition at 10 μM)”. Also, the “A6: inhibition of radioligand binding” value in [6] ([125I]-S36057, FlashPlate) was “− (“−” indicates less than 50% inhibition at 10 μM)”. Moreover, the “A7: inhibition of radioligand binding” value in assay [7] (FlashPlate) is given as “− (“−” indicates less than 50% inhibition at 10 μM)”. Besides, in [8] (filtration), the “A8: inhibition of radioligand binding” value was “+ (“+” indicates greater than 50% inhibition at 10 μM)”. Also, the “A9: inhibition of radioligand binding” value in [9] (FlashPlate) was “− (“−” indicates less than 50% inhibition at 10 μM)”. For the same compound, the “A10: inhibition of radioligand binding” value in assay [10] (FlashPlate) was “− (“−” indicates less than 50% inhibition at 10 μM)”. In assay [11] (FlashPlate), the “A11: inhibition of radioligand binding” value is listed as “− (“−” indicates less than 50% inhibition at 10 μM)”.
